Experimental data published in patent publication US6156801A, “2-phenoxyaniline derivatives” (Taisho Pharmaceutical Co., Ltd., priority 1997, dated 2000).
pIC50: −log10 of the molar value. Where a name gives a salt, the structure may show the parent alone.

Each compound was assayed against T1, Na^+ /Ca^2+ exchange system (Canis lupus familiaris, UniProt P23685) (assay: Inhibitory action on Na+/Ca2+ exchange system using myosarcolemmal vesicles (45Ca uptake)). Settings: sarcolemmal vesicles from dog ventricular muscles; Na+-loaded; 20 μM [45Ca]-calcium chloride, pH 7.4, 10 seconds uptake.
T1 construct: Sarcolemmal vesicles which were prepared from the removed dog ventricular muscles; from tissue; host or cells: dog ventricular muscle, sarcolemmal vesicles
Assay type: biochemical
Description: Inhibitors Action on a Na^+ /Ca^2+ Exchange System using Myosarcolemmal Vesicles Sarcolemmal vesicles which were prepared from the removed dog ventricular muscles by referring to the method described in the literature (L. R. Jones, Methods, Enzymol., 1988, 157, pp. 85) were used. A Na^+ /Ca^2+ exchange activity using the sarcolemmal vesicles was measured by referring to the method described in the literature (K. D. Philipson, et al., J. Biol. Chem., 1980, 255, pp. 6880). First, the sarcolemmal vesicles were suspended in a sodium-containing solution [160 mM sodium chloride, 20 mM […] (pH 7.4)] to make up to a protein concentration of 1.5 mg/ml, and allowed to stand for an hour to load Na^+ in the sarcolemmal vesicles. To 2.5 μl of the sarcolemmal vesicles was added 125 μl of a [^45 Ca]-calcium chloride solution [20 μM [^45 Ca]-calcium chloride, 160 mM potassium chloride and 20 mM Mops-Tris (pH 7.4)], and after 10 seconds, 900 μl of an ice-cooled lanthanum chloride solution [10 mM lanthanum chloride, 160 mM potassium chloride and 20 mM Mops-Tris (pH 7.4)] was added. The sarcolemmal vesicles were recovered on a nitrocellulose filter by suction filtration and washed three times with 900 μl of a lanthanum chloride solution. The concentration of Ca^2+ uptake in the sarcolemmal vesicles was determined by measuring a ^45 Ca radioactivity by a scintillator. In addition, a Na^+ /Ca^2+ exchange activity-independent Ca^2+ uptake in the sarcolemmal vesicles was determined by carrying out the same procedure using a potassium-containing solution [160 mM potassium chloride, 20 mM Tris-hydrochloric acid (pH 7.4)] instead of the sodium-containing solution. The test compound was used as a dimethyl sulfoxide solution thereof, and its inhibitory effect was evaluated in comparison with the vehicle-treatedgroup. The IC50 value was determined from a dose inhibition curve of the test compound by using the minimum square method.

| pIC50 | Structure (SMILES) |
| --- | --- |
| 5.96 | COc1ccc(Oc2ccc(OCc3ccccc3)cc2)c(N)c1 [Example 1, 2-[4-(Benzyloxy)phenoxy]-5-methoxyaniline hydrochloride] |
| 5.09 | Nc1cccc(N)c1Oc1ccc(OCc2ccccc2)cc1 [Example 14, 2-[4-(Benzyloxy)phenoxy]-1,3-phenylenediamine dihydrochloride] |
| 5.60 | CCOc1ccc(Oc2ccc(OCc3ccccc3)cc2)c(N)c1 [Example 17, 2-[4-(Benzyloxy)phenoxy-5-ethoxyaniline hydrochloride] |
| 4.85 | NC(=O)COc1ccc(Oc2ccc(OCc3ccccc3)cc2)c(N)c1 [Example 19, 3-Amino-4-[4-(benzyloxy)phenoxy]phenoxy-acetamide hydrochloride] |
| 5.55 | COC(=O)COc1ccc(Oc2ccc(OCc3ccccc3)cc2)c(N)c1 [Example 20, Methyl 3-amino-4-[4-(benzyloxy)-phenoxy]phenoxyacetate hydrochloride] |
